US20100069854A1, “Elastomeric Devices Containing Chlorhexidine/Fatty Acid Salts Made From Fatty Acids of 12 to 18 Carbons” (priority 2008, published 2010)

Legend:
[1] = Rate of release of chlorhexidine/fatty acid salts from coated polyurethane tubes into DI water; type: physicochemical; details: for Cumulative release of the chlorhexidine/fatty acid salts from the coated polyurethane tubes: 1 cm coated tube in DI water, 37° C.
Protocol: A solution of each respective chlorhexidine/fatty acid salt was prepared and used to infuse a sample of elastomeric material. To perform the test, individual samples, 8 cm pieces of polyurethane tube containing a colorant, were surface dip coated in respective solutions of the chlorhexidine/fatty acid salts. The solutions were prepared as follows: 8.6 g of Tecoflex (Noveon, Cleveland, Ohio) was dissolved in 174 g of Tetrahydrofuran and methanol. 5.88 g of chlorhexidine acetate, chlorhexidine laurate, chlorhexidine myristate, chlorhexidine palmitate and chlorhexidine stearate were individually dissolved into the polymer-solvent mixture. The samples were immersed into the solvent-polymer-salt mixture and then dried at room temperature, evaporating the solvent. A polymeric coating was produced on the surface of the tubes. The amounts of chlorhexidine/fatty acid salt adhered per cm of the tube was measured (Table 2) by exhaustively extracting the salt and measuring UV absorbance at 253 nm relative to controls: For each of the samples, the rate of release of chlorhexidine/fatty acid salts into an aqueous solution was determined. To perform the rate of release test, 1 cm from each of the coated polyurethane tubes, were submerged in DeIonized (DI) water and incubated at 37° C. for a period of 28 days to determine the rate of release of the salts from the respective 1 cm samples of coated polyurethane tubing. The water was collected and replaced with fresh water after approximately 2 hours. The water was again collected and replaced with fresh water after the first day and every seven days thereafter. The amount of chlorhexidine/fatty acid salt in the collected water was measured with an Agilent 8453 UV-Vis Diode Array Detector with a manual setup using a cuvette w/path length of 1 cm. Chlorhexidine absorbance was read at 253 nm and concentration was calculated via a calibration curve developed using standards of 1, 5, 10, 20, 30, 35, and 40 μg/mL chlorhexidine acetate in DI Water. The percentage of chlorhexidine/fatty acid salt released from the sample into an aqueous media (percent release) was calculated according to the following equation: Percent release=(cumulative release at that time period/initial content)*100.

[2] = test system: Pseudomonas aeruginosa ATCC 27853; test: Basic broth adherence assay on coated polyurethane tubes; type: cell-based
Protocol: The antimicrobial effectiveness of the coated samples was subjected to different durations of DI water extraction by basic broth adherence assay. For each chlorhexidine/fatty acid salt tested, 3 samples of coated tubing were prepared and assayed. To prepare the inoculum, a culture of Pseudomonas aeruginosa ATCC 27853 was used to challenge the coated polyurethane tubes and controls. The negative control used was a length of uncoated polyurethane tube. The challenge microorganism suspension was prepared as follows: approximately three colonies were removed from a secondary working culture plated on Trypticase Soy Agar (TSA) (BD-Falcon) with 5% sheep's blood and added to 10 ml of Trypticase Soy Broth (TSB). The vial was vortexed for approximately 30 seconds and incubated for 4 hours at 37° C. at 100 rpm. Following incubation, the vial was removed and vortexed. The optical density of the organism suspension was read. The inoculum was then diluted in TSB to a concentration of 5×10^4 colony forming units per milliliter (CFU/mL). This concentration was confirmed by the Miles and Misra drop count method.
The basic broth adherence assay was performed in a 96 well micro titer plate. To each well of the micro titer plate containing either a test article or a control, 900 μl of TSB was added. To this, 100 μl of the adjusted inoculum was added (Note: Due to the 1/10 dilution per well, the starting inoculum concentration of each organism was […] for Pseudomonas aeruginosa). The micro titer plates were then sealed via parafilm® around the edges and wrapped in foil to avoid evaporation of liquid and light contact with the samples. The plates were then placed inside a shaker incubator set at 37° C. and 100 rpm for 24 hours. Incubation at 37° C. then continued until the elapse of 7 days, 14 days, and 21 days, respectively, for each of the 3 samples prepared for each chlorhexidine/fatty acid salt.
At the completion of the respective incubation periods, the samples were rinsed, sonicated, the sonicate was plated and adherence was evaluated. More particularly, following incubation, all samples and controls were dip-rinsed twice in phosphate buffered saline (PBS) to remove the surrounding media. After rinsing, test articles were sonicated in micro titer plate wells containing 1 mL of Dey-Engley (DE) neutralizing broth (Difco). The sonication liquid was then serially diluted, and plated onto the surface of DE neutralizing agar. Plates were incubated at 37° C. for 24 to 48 hours and colonies were counted. Recovery counts were recorded as CFU/mL.

[3] = Incorporation of chlorhexidine salts into silicone tubing (swelling impregnation, extraction, HPLC); type: physicochemical; details: one day, equivalent mass of chlorhexidine base extracted;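 further: columns differ by chlorhexidine salt concentration in the impregnation solution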
Protocol: Chlorhexidine diacetate, Chlorhexidine dodecanoate and chlorhexidine palmitate were loaded into silicone tubing by first dissolving the chlorhexidine salt in a 90% THF+10% Methanol solution.
Impregnated chlorhexidine was extracted from the tubing by immersing in an excess of THF to fully swell it and then adding an equal volume of water to extract the chlorhexidine salt. The quantity of chlorhexidine was determined by previously enumerated HPLC method. It is reported below for different concentration impregnation solutions in terms of the equivalent mass of chlorhexidine base extracted: […]

Structure (SMILES): N=C(NCCCCCCNC(=N)NC(=N)Nc1ccc(Cl)cc1)NC(=N)Nc1ccc(Cl)cc1.Nc1ccc(P(=O)(O)O)cc1.Nc1ccc(P(=O)(O)O)cc1 [Chlorhexidine Palmitate, chlorhexidine dipalmitate]
- Cumulative release of the chlorhexidine/fatty acid salts from the coated polyurethane tubes ([1]; Day 1): 28 g
- Cumulative release of the chlorhexidine/fatty acid salts from the coated polyurethane tubes ([1]; Day 7): 79 g
- Cumulative release of the chlorhexidine/fatty acid salts from the coated polyurethane tubes ([1]; Day 14): 112 g
- Cumulative release of the chlorhexidine/fatty acid salts from the coated polyurethane tubes ([1]; Day 21): 132 g
- Cumulative release of the chlorhexidine/fatty acid salts from the coated polyurethane tubes ([1]; Day 28): 140 g
- Release from the coated sample over the test (in words) ([1]; FIG. 1, 28 days in DI water): continually released at an appreciable rate throughout the duration of the test
- Amount released from the coated sample over the 7 day period ([1]; from 21 to 28 days): 8 µg
- Log10 reduction of adhered Pseudomonas aeruginosa onto the surface of coated polyurethane tubes ([2]; 7 days): 7
- Log10 reduction of adhered Pseudomonas aeruginosa onto the surface of coated polyurethane tubes ([2]; 14 days): 7
- Log10 reduction of adhered Pseudomonas aeruginosa onto the surface of coated polyurethane tubes ([2]; 21 days): 7
- Salt content in silicone elastomeric medical article ([3]; 1% impregnation solution in 90% THF+10% Methanol): 133 µg/cm
- Salt content in silicone elastomeric medical article ([3]; 3% impregnation solution in 90% THF+10% Methanol): 205 µg/cm
- Salt content in silicone elastomeric medical article ([3]; 6% impregnation solution in 90% THF+10% Methanol): 356 µg/cm
- Salt content in silicone elastomeric medical article ([3]; 10% impregnation solution in 90% THF+10% Methanol): 366 µg/cm
- Salt content in silicone elastomeric medical article ([3]; 20% impregnation solution in 90% THF+10% Methanol): 407 µg/cm
